Patent US9808527B2, “Methods and compositions for treating HIV infections” (priority 2006, dated 2017)
Entries after “also recorded” stand apart in the source; their conditions may differ. Read-outs that look alike come from different tables or passages of the source.

Key:
HIV-2EHO = experiment: MTT assay, MT-2 cells exposed to HIV-2EHO; format: cell-based
Experimental: (§1) Drug susceptibility assay. The susceptibility of HIV-1LAI, HIV-2EHO, HIV-2ROD, to various drugs and the cytotoxicity of those drugs was determined by using the MTT assay. Briefly, MT-2 cells (2×10^4/mL) were exposed to 100 TCID50s (50% tissue culture infectious doses) of HIV-1LAI, HIV-2EHO, or HIV-2ROD in the presence or absence of various concentrations of drugs in 96-well microculture plates and were incubated at 37° C. for 7 days. After 100 μL of the medium was removed from each well, 3-(4,5-dimethylthiazol-2-yl)-2,5-diphenyltetrazolium bromide (MTT) solution (10 μL, 7.5 mg/mL in phosphate-buffered saline) was added to each well in the plate, followed by incubation at 37° C. for 4 hours. […] All assays were performed in duplicate or triplicate. To determine the sensitivity of HIV-1Ba-L, HIV-1ERS104 pre, and clinical multi-drug-resistant HIV-1 isolates and different subtypes of HIV-1 isolates to drugs, phytohemagglutinin-activated peripheral blood mononuclear cells (PHA-PBMs; 10^6/mL) were exposed to 50 TCID50 (50% tissue infectious dose) of each HIV-1 isolate and cultured in the presence or absence of various concentrations of drugs in 10-fold serial dilutions in 96-well microtiter culture plates. To determine the drug susceptibility of certain laboratory HIV-1 strains (HIV-1NL4-3), MT-4 cells were used as target cells. MT-4 cells (10^5/mL) were exposed to 100 TCID50 of wild type HIV-1NL4-3 and PI-resistant HIV-1NL4-3 in the presence or absence of various concentrations of drugs and were incubated at 37° C. On day 7 of culture, the supernatant was harvested and the amount of p24 Gag protein was determined by using a fully automated chemiluminescent enzyme immunoassay system (Lumipulse F; Fujirebio Inc., Tokyo, Japan) (22). […] All assays were performed in duplicate or triplicate.
All assays were conducted in duplicate, and the data shown represent mean values (±1 standard deviations) derived from the results of three independent experiments.

Ba-L (B-R5) = experiment: p24 Gag production inhibition, PHA-PBMs, subtype B Ba-L; format: cell-based, HIV-1; conditions: Human immunodeficiency virus 1, BAL, read-out: IC50 against Ba-L (B-R5)
Experimental: as §1
(§2) The IC50 values were determined by using PHA-PBMs as target cells and the inhibition of p24 Gag protein production by each drug was used as an endpoint. All assays were conducted in duplicate, and the data shown represent mean values (±1 standard deviations) derived from the results of two or three independent experiments.

92UG029 (A-X4) = experiment: p24 Gag production inhibition, PHA-PBMs, subtype A isolate 92UG029; format: cell-based, HIV-1
Experimental: as §1, §2

HIV-1NL4-3 = experiment: p24 Gag production inhibition, MT-4 cells, wild-type HIV-1NL4-3; format: cell-based
Experimental: as §1

92TH019 (E-R5) = experiment: p24 Gag production inhibition, PHA-PBMs, subtype E isolate 92TH019; format: cell-based, HIV-1; conditions: Human immunodeficiency virus 1, read-out: IC50 against 92TH019 (E-R5)
Experimental: as §1, §2

[1] = molecular target: T1, CFP- and YFP-tagged HIV-1 protease subunits (Human immunodeficiency virus type 1 group M subtype B, UniProt P12497); format: cell-based; conditions: Cos-7 cells; for CFP A/B ratio (CFP fluorescence after/before photobleaching): ratio <1 = dimerization blocked
T1 construct: expressed in transfected cells; host or cells: Cos-7
Experimental: After 72 hr, cultured cells were examined in the FRET-HIV-1 assay system using confocal microscopy Fluoview FV500 confocal laser scanning microscope, and CFP^A/B were determined and plotted. […] The FRET efficiency was determined following acceptor photobleaching as previously described (Bastiaens et al., EMBO 1996; Siegel et al., Science's stke 2000; Firulli et al., Nature genetics, 2005; Szczesna et al., JBC 2003). Dequenching of the donor CFP by selective photobleaching of the acceptor YFP was performed by first obtaining YFP and CFP images at the same focal plane, followed by illuminating for 3 min the same image at wavelength of 488 nm with a laser power set at the maximum intensity to bleach YFP and re-capturing the same CFP and YFP images. The changes in the CFP and YFP fluorescence intensity in the images of selected regions were examined and quantified using Olympus FV500 Image software system. Background values were obtained from the regions where no cells were present and were subtracted from the values for the cells examined in all calculations. For each chimeric protein, the data were obtained from at least three independent experiments. FRET efficiency was determined using the formula: ET=(1−(IDA/ID))×100, where IDA and ID represent the steady-state donor fluorescence in the presence and absence of the acceptor, respectively. Digitized image data obtained from the experiment were prepared for presentation using Photoshop 6.0 (Adobe systems, Mountain View, Calif.). Ratios of intensities of ECFP fluorescence after photobleaching to ECFP fluorescence prior to photobleaching were determined. The ratios of more than 1 indicate that dimerization of CFP- and YFP-tagged protease subunits occurred and those of less than 1 indicate that dimerization was blocked by the test agent.
Generation of FRET-based HIV-1 expression assay. The basic concepts of the intermolecular fluorescence resonance energy transfer (FRET)-based HIV-1-expression assay (FRET-HIV-1 assay) are shown in FIG. 7. Within a plasmid (pHIV-1NL4-3), which encodes a full-length molecular infectious HIV-1 clone, the gene encoding a cyan fluorescent donor protein (CFP) was attached to the downstream end (C-terminus) of the gene encoding an HIV-1 protease subunit through the flexible linker added (five alanines), generating pHIV-1NL4-3/CFP (FIG. 7A). Within the other plasmid (pHIV-1NL4-3), the gene encoding a yellow fluorescent acceptor protein (YFP) was attached to the downstream end of protease-encoding gene in the same manner, generating pHIV-1NL4-3/YFP. Both CFP and YFP were designed to have phenylalanine and proline in the connection with reverse transcriptase so that the protease is cleaved from reverse transcriptase when two subunits dimerize and the dimerized protease acquires enzymatic activity. […] A focused laser beam excitation of CFP (triggered by Helium-Cadmium laser) results in rapid energy transfer to YFP, and most of the fluorescence photons are emitted by YFP (Miyawaki et al. Nature 388(6645):882-887 (1997)). If the dimerization is blocked, the average distance between CFP and YFP becomes larger and the energy transfer rate is decreased and the fraction of photons emitted by YFP is lowered.
In order to interpret the energy transfer efficiency quantitatively, an acceptor photobleaching technique was used, in which the change in CFP emission quenching is measured by comparing the value before and after selectively photobleaching YFP, which prevents problems associated with variable expression levels.

MT-2 cells = experiment: Cytotoxicity by MTT assay; format: cell-based, Human
Experimental: as §1

[2] = Human immunodeficiency virus 2, MT2, read-out: IC50 against HIV-2EHO
[3] = Human immunodeficiency virus 1, PHA-PBMs, p24 Gag production, read-out: IC50 against 92UG029 (A-X4)
[4] = Human immunodeficiency virus 1, MT4, read-out: IC50 against HIV-1NL4-3 (wild type)
[5] = Human immunodeficiency virus 2, MT2, MT-2 cells, 100 TCID50, MTT assay, read-out: IC50 against HIV-2EHO
[6] = cytotoxicity, MTT assay, MT-2 cells, read-out: CC50
[7] = Human immunodeficiency virus 1, MT4, MT-4 cells, 100 TCID50, p24 Gag production, read-out: IC50 against HIV-1NL4-3 (wild type)

| SMILES | IC50 (HIV-2EHO; [2]) | IC50 (Ba-L (B-R5); PHA-PBMs, p24 Gag production) | IC50 (92UG029 (A-X4); [3]) | IC50 (HIV-1NL4-3; [4]) | IC50 (92TH019 (E-R5)) | inhibition of protease dimerization ([1]; 1 μM) | IC50 (HIV-2EHO; [5]) | CC50 (MT-2 cells; [6]) | IC50 (Ba-L (B-R5)) | IC50 (92UG029 (A-X4); Human immunodeficiency virus 1, read-out: IC50 against 92UG029 (A-X4)) | CFP A/B ratio (CFP fluorescence after/before photobleaching) ([1]; 1 μM) | inhibition of protease dimerization ([1]; 10 μM) | CC50 (MT-2 cells; human, 7 days) | IC50 (HIV-1NL4-3; [7]) |
| --- | --- | --- | --- | --- | --- | --- | --- | --- | --- | --- | --- | --- | --- | --- |
| CC(C)CN(CC(O)C(Cc1ccccc1)NC(=O)OC1COC2OCCC12)S(=O)(=O)c1ccc2c(c1)OCO2 (stereo not shown) [GRL-98065] | 3.2 ± 0.7 nM | 0.2 ± 0.1 nM | 0.5 ± 0.2 nM | 0.3 ± 0.2 nM | 0.3 ± 0.1 nM | dimerization was effectively blocked; also recorded: disrupt protease dimerization |  |  |  |  |  |  |  |  |
| CC(C)(C)NC(=O)[C@@H]1CN(Cc2cccnc2)CCN1C[C@@H](O)C[C@@H](Cc1ccccc1)C(=O)N[C@H]1c2ccccc2C[C@H]1O [IDV, indinavir] |  | 22 ± 5 nM | 44 ± 9 nM |  | 21 ± 1 nM |  | 24 ± 5 nM | 69800 nM |  |  |  |  |  |  |
| CC(C)(C)NC(=O)[C@@H]1C[C@@H]2CCCC[C@@H]2CN1C[C@@H](O)[C@H](Cc1ccccc1)NC(=O)[C@H](CC(N)=O)NC(=O)c1ccc2ccccc2n1 [SQV, Saquinavir] | 3 ± 0.4 nM |  |  | 7 ± 2 nM | 3 ± 0.1 nM | None |  | 16400 nM | 8.3 ± 0.5 nM | 4.8 ± 0.5 nM | 1.11±0.15 | none of these 4 PIs inhibited protease dimerization |  |  |
| COC(=O)N[C@H](C(=O)N[C@@H](Cc1ccccc1)[C@@H](O)CN(Cc1ccc(-c2ccccn2)cc1)NC(=O)[C@@H](NC(=O)OC)C(C)(C)C)C(C)(C)C [ATV, Atazanavir] | 5 ± 2 nM | 1.3 ± 0.4 nM | 6 ± 2 nM | 4.2 ± 0.4 nM | 2.7 ± 0.1 nM | None |  |  |  |  | 1.25±0.12 | none of these 4 PIs inhibited protease dimerization | 27600 nM |  |
| Cc1cccc(C)c1OCC(=O)N[C@@H](Cc1ccccc1)[C@@H](O)C[C@H](Cc1ccccc1)NC(=O)[C@H](C(C)C)N1CCCNC1=O [LPV, lopinavir] |  | 5.3 ± 0.4 nM | 7 ± 1 nM |  | 3.3 ± 0.5 nM | None | 2.6 ± 0.8 nM | > 100000 nM |  |  |  |  |  | 31 ± 9 nM |
| CC(C)c1nc(CN(C)C(=O)N[C@H](C(=O)N[C@@H](Cc2ccccc2)C[C@H](O)[C@H](Cc2ccccc2)NC(=O)OCc2cncs2)C(C)C)cs1 [RTV, ritonavir] |  | 23 ± 6 nM | 71 ± 11 nM |  | 30 ± 9 nM | None | 210 ± 50 nM |  |  |  |  |  |  | 33 ± 2 nM |
| Cc1c(O)cccc1C(=O)N[C@@H](CSc1ccccc1)[C@H](O)CN1C[C@H]2CCCC[C@H]2C[C@H]1C(=O)NC(C)(C)C [NFV, Nelfinavir] |  | 18 ± 4 nM | 43 ± 6 nM |  | 29 ± 4 nM | None | 30 ± 6 nM | 8100 nM |  |  |  | none of these 4 PIs inhibited protease dimerization |  | 33 ± 7 nM |
| CC(C)CN(C[C@@H](O)[C@H](Cc1ccccc1)NC(=O)O[C@H]1CCOC1)S(=O)(=O)c1ccc(N)cc1 [APV, Amprenavir] |  | 25 ± 6 nM | 46 ± 6 nM |  | 21 ± 6 nM |  | 250 ± 80 nM | > 100000 nM |  |  |  |  |  |  |
